Results: US11560372B2, “Heterocyclic compounds useful as modulators of acetylcholine receptors” (TAKEDA PHARMACEUTICAL COMPANY LIMITED, priority 2017, dated 2023)

Columns and labels:
[1] = molecular target: T1, human M1 receptor (hCHRM1) (Homo sapiens, UniProt P11229); experiment: Measurement of M1 receptor positive allosteric modulator (M1PAM) activity, calcium fluorescence in CHO-K1 cells; type: cell-based; settings: for activity (%) at 10 μM: 10 μM test compound, 100% = acetylcholine final concentration 1 μM, 0% = DMSO; for EC50: inflection point of concentration-dependent curve, in the presence of acetylcholine at EC20 concentration (final 0.8-1.0 nM), read-out: IP value
T1 construct: expressed in transfected cells
T1 sequence (P11229 1-460): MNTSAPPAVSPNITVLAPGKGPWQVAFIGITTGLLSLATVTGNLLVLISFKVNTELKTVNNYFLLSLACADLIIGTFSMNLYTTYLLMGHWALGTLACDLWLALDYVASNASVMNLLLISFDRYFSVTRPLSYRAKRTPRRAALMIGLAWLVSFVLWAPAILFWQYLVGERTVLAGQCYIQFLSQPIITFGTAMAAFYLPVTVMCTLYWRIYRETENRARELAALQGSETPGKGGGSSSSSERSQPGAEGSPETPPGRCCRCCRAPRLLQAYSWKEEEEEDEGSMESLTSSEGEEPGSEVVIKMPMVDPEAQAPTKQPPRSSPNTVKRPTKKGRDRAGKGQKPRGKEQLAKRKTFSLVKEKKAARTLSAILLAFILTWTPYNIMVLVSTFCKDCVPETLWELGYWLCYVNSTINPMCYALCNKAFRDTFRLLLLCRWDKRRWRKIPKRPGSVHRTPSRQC
Procedure: Measurement of M1 Receptor Positive Allosteric Modulator (M1PAM) Activity
The activity of a test compound in the presence of acetylcholine at EC20 concentration (final concentration 0.8-1.0 nM), which affords an action corresponding to about 20% of the maximum activity, was measured as PAM activity. The method is as follows. CHO-K1 cells stably expressing a human M1 receptor (hCHRM1) were plated on a 384-well black clear bottom plate (BD Falcon) at 5,000 cells/well, and cultured in an incubator at 37° C., 5% CO2 for 1 day. The medium in the cell plate was removed, and assay buffer A containing calcium indicator (Recording medium (DOJINDO LABORATORIES), 0.1% BSA (Wako Pure Chemical Industries, Ltd.), 2.5 μg/mL Fluo-4 AM (DOJINDO LABORATORIES), 0.08% Pluronic F127 (DOJINDO LABORATORIES), 1.25 mM probenecid (DOJINDO LABORATORIES)) was added at 30 μL/well. The cells were left standing in the incubator at 37° C., 5% CO2 for 30 min, and further left standing at room temperature for 30 min. A test compound prepared by diluting with assay buffer B (HBSS (Invitrogen), 20 mM HEPES (Invitrogen), 0.1% BSA) containing 3.2-4.0 nM acetylcholine was added at 10 μL/well, and the fluorescence was measured by FDSS/pCELL (Hamamatsu Photonics K.K.) for 1 min every for 1 second. With the definition that the amount of change in the fluorescence on addition of acetylcholine (final concentration 1 μM) is 100% and that on addition of DMSO instead of a test compound is 0%, the activity (%) of the test compound was calculated, and the inflection point in the concentration-dependent curve of the test compound was calculated as IP values.

MDR1 = molecular target: T2, MDR1 (Homo sapiens, UniProt P08183); experiment: MDR1 membrane permeability test; type: in vitro ADME; settings: pH 7.4, efflux ratio (ER), Papp B to A / A to B, human MDR1-expressing LLC-PK1 cells, read-out: MDR1 substrate screening 1 μM (MDRSUB1)/Ratio (NUMBER)
T2 construct: expressed in transfected cells
T2 sequence (P08183 whole entry): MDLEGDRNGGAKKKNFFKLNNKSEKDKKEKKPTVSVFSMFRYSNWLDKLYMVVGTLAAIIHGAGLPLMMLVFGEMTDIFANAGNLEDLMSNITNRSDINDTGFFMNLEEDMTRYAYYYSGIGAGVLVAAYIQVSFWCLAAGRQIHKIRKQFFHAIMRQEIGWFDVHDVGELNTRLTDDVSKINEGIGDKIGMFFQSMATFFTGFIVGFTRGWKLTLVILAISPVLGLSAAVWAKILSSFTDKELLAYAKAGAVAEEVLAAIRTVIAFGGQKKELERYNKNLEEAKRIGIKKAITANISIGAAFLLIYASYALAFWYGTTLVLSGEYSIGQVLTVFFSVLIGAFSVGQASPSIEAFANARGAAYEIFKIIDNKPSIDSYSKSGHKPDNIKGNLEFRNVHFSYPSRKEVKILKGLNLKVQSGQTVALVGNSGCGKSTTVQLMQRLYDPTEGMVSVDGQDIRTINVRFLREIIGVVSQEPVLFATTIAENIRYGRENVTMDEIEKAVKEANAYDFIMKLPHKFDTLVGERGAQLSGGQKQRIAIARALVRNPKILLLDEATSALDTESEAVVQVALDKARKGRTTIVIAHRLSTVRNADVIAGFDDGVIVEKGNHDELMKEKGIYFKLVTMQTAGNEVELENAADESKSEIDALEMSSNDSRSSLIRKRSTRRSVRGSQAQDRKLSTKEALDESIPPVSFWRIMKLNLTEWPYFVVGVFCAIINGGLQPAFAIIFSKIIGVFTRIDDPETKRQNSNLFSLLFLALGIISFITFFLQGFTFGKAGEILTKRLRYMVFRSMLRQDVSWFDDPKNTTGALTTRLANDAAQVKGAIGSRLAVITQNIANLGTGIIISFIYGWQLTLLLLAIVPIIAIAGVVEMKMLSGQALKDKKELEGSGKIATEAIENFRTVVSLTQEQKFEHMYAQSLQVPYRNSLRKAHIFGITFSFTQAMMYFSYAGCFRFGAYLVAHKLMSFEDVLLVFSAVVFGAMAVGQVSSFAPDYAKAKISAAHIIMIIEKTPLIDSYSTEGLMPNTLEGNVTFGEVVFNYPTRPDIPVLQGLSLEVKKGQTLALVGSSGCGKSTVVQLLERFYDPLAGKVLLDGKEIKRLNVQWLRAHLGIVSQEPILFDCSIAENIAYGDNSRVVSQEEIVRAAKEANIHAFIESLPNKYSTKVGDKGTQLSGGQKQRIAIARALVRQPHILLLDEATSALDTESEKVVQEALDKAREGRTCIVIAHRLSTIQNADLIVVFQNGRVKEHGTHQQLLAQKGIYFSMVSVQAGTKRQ
In short: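 Human MDR1-expressing LLC-PK1 cells were grown for 3 days on 96-well polyethylene terephthalate Transwell supports (0.4 μm pores, 0.143 cm^2) seeded at 3.45×10^4 cells/well. After a 30 min preincubation in M199 medium with 10 mmol/L HEPES and 1% BSA (pH 7.4), drug was added apically or basolaterally. After 1 hr at 37° C, the opposite side was sampled and analyzed by LC-MS/MS. Efflux ratio was calculated from Papp B to A versus A to B.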

activity (%) at 10 μM [1] [%]	EC50 [1] [nM]	efflux ratio at 1 hr, 1 μM (MDR1)	Compound
107	2	32	Cc1c(Cc2ccc(C(=O)NCCN3CCCC3=O)c(F)c2)cc2c(=O)n([C@H]3CCOC[C@@H]3O)cnc2c1C [Example 77, 1,5-anhydro-2,3-dideoxy-3-(6-(3-fluoro-4-((2-(2-oxopyrrolidin-1-yl)ethyl)carbamoyl)benzyl)-7,8-dimethyl-4-oxoquinazolin-3 (4H)-yl)-L-threo-pentitol]
100	0.91	17	Cc1c(Cc2ccc(-c3cnn(C)c3)nc2)cc2c(=O)n([C@H]3CCOC[C@@H]3O)cnc2c1Cl [Example 11, 1,5-anhydro-3-(8-chloro-7-methyl-6-((6-(1-methyl-1H-pyrazol-4-yl)pyridin-3-yl)methyl)-4-oxoquinazolin-3(4H)-yl)-2,3-dideoxy-L-threo-pentitol]
109	1.4	18	COCCn1cc(-c2ccc(Cc3cc4c(=O)n([C@H]5CCOC[C@@H]5O)cnc4c(C)c3C)cn2)cn1 [Example 73, 1,5-anhydro-2,3-dideoxy-3-(6-((6-(1-(2-methoxyethyl)-1H-pyrazol-4-yl)pyridin-3-yl)methyl)-7,8-dimethyl-4-oxoquinazolin-3(4H)-yl)-L-threo-pentitol]
106	0.99	9.5	Cc1c(Cc2ccc(-c3cnn(C)c3)nc2)cc2c(=O)n([C@H]3CCOC[C@@H]3O)nnc2c1Cl [Example 54, 1,5-anhydro-3-(8-chloro-7-methyl-6-((6-(1-methyl-1H-pyrazol-4-yl)pyridin-3-yl)methyl)-4-oxo-1,2,3-benzotriazin-3 (4H)-yl)-2,3-dideoxy-L-threo-pentitol]
106	1.9	15	Cc1c(Cc2ccc(C(=O)NCC3(O)CC3)c(F)c2)cc2c(=O)n([C@H]3CCOC[C@@H]3O)cnc2c1C [Example 76, 1,5-anhydro-2,3-dideoxy-3-(6-(3-fluoro-4-(((1-hydroxycyclopropyl)methyl)-carbamoyl)benzyl)-7,8-dimethyl-4-oxoquinazolin-3 (4H)-yl)-L-threo-pentitol]
107	2.1	4.9	Cc1c(Cc2ccc(-c3cnn(C4CC4)c3)nc2)cc2c(=O)n([C@H]3CCOC[C@@H]3O)cnc2c1C [Example 56, 1,5-anhydro-3-(6-((6-(1-cyclopropyl-1H-pyrazol-4-yl)pyridin-3-yl)methyl)-7,8-dimethyl-4-oxoquinazolin-3 (4H)-yl)-2,3-dideoxy-L-threo-pentitol]
108	2.2	32	COc1cc2ncn([C@H]3CCOC[C@@H]3O)c(=O)c2cc1Cc1ccc(-c2cn(C)cn2)cc1 [Example 61, 1,5-anhydro-2,3-dideoxy-3-(7-methoxy-6-(4-(1-methyl-1H-imidazol-4-yl)benzyl)-4-oxoquinazolin-3 (4H)-yl)-L-threo-pentitol]
112	1.6	12	Cc1c(Cc2ccc(C(=O)NCC3CC3)cc2)cc2c(=O)n([C@H]3CCOC[C@@H]3O)cnc2c1C [Example 29, 1,5-anhydro-3-(6-(4-((cyclopropylmethyl)carbamoyl)-benzyl)-7,8-dimethyl-4-oxoquinazolin-3 (4H)-yl)-2,3-dideoxy-L-threo-pentitol]
108	3	13	Cc1c(Cc2ccc(-c3cnn(C4CCOCC4)c3)nc2)cc2c(=O)n([C@H]3CCOC[C@@H]3O)cnc2c1C [Example 75, 1,5-anhydro-2,3-dideoxy-3-(7,8-dimethyl-4-oxo-6-((6-(1-(tetrahydro-2H-pyran-4-yl)-1H-pyrazol-4-yl)pyridin-3-yl)methyl)quinazolin-3(4H)-yl)-L-threo-pentitol]
103	1.9	19	COc1cc2ncn([C@H]3CCOC[C@@H]3O)c(=O)c2cc1Cc1ccc(-c2cnn(C)c2)nc1 [Example 58, 1,5-anhydro-2,3-dideoxy-3-(7-methoxy-6-((6-(1-methyl-1H-pyrazol-4-yl)pyridin-3-yl)methyl)-4-oxoquinazolin-3 (4H)-yl)-L-threo-pentitol]
101	1	38	Cc1c(Cc2ccc(-c3ccn(C)n3)nc2)cc2c(=O)n([C@H]3CCOC[C@@H]3O)cnc2c1Cl [Example 13, 1,5-anhydro-3-(8-chloro-7-methyl-6-((6-(1-methyl-1H-pyrazol-3-yl)pyridin-3-yl)methyl)-4-oxoquinazolin-3(4H)-yl)-2,3-dideoxy-L-threo-pentitol]
101	2	5.7	Cc1cc(-c2ccc(Cc3cc4c(=O)n([C@H]5CCOC[C@@H]5O)cnc4c(C)c3C)cc2)cnn1 [Example 4, 1,5-anhydro-2,3-dideoxy-3-(7,8-dimethyl-6-(4-(6-methylpyridazin-4-yl)benzyl)-4.-oxoquinazolin-3(4H)-yl)-L-threo-pentitol]
107	2.1	10	CCOCCNC(=O)c1ccc(Cc2cc3c(=O)n([C@H]4CCOC[C@@H]4O)cnc3c(C)c2C)cc1F [Example 85, 1,5-anhydro-2,3-dideoxy-3-(6-(4-((2-ethoxyethyl)carbamoyl)-3-fluorobenzyl)-7,8-dimethyl-4-oxoquinazolin-3(4H)-yl)-L-threo-pentitol]
108	3.7	3.4	Cc1c(Cc2ccc(-c3cnn(C)c3)cc2)cc2c(=O)n([C@H]3CCOC[C@@H]3O)cnc2c1F [Example 24, 1,5-anhydro-2,3-dideoxy-3-(8-fluoro-7-methyl-6-(4-(1-methyl-1H-pyrazol-4-yl)benzyl)-4-oxoquinazolin-3(4H)-yl)-L-threo-pentitol]
108	1.5	26	Cc1c(Cc2ccc(C(=O)NCC3COC3)c(F)c2)cc2c(=O)n([C@H]3CCOC[C@@H]3O)cnc2c1C [Example 79, 1,5-anhydro-2,3-dideoxy-3-(6-(3-fluoro-4-((oxetan-3-ylmethyl)carbamoyl)benzyl)-7,8-dimethyl-4-oxoquinazolin-3 (4H)-yl)-L-threo-pentitol]
110	1.4	23	Cc1c(Cc2ccc(C(=O)NC3COC3)cc2)cc2c(=O)n([C@H]3CCOC[C@@H]3O)cnc2c1C [Example 27, 1,5-anhydro-2,3-dideoxy-3-(7,8-dimethyl-6-(4-(oxetan-3-ylcarbamoyl)benzyl)-4-oxoquinazolin-3(4H)-yl)-L-threo-pentitol]
106	1	24	CNC(=O)c1ccc(Cc2cc3c(=O)n([C@H]4CCOC[C@@H]4O)cnc3c(C)c2C)cc1 [Example 18, 1,5-anhydro-2,3-dideoxy-3-(7,8-dimethyl-6-(4-(methylcarbamoyl)benzyl)-4-oxoquinazolin-3(4H)-yl)-L-threo-pentitol]
110	3.1	7.8	COCCCNC(=O)c1ccc(Cc2cc3c(=O)n([C@H]4CCOC[C@@H]4O)cnc3c(C)c2C)cc1F [Example 86, 1,5-anhydro-2,3-dideoxy-3-(6-(3-fluoro-4-((3-methoxypropyl)carbamoyl)benzyl)-7,8-dimethyl-4-oxoquinazolin-3(4H)-yl)-L-threo-pentitol]
